Positions count from the first letter of the chain named.

The values that follow come from ChEMBL document CHEMBL4257563, “Recent Advances in the Medicinal Chemistry of Liver X Receptors” (J Med Chem, 2018).

For data set [1], the target named is T1, Oxysterols receptor LXR-alpha (Homo sapiens, UniProt Q13133).
T1 sequence (Q13133 whole entry): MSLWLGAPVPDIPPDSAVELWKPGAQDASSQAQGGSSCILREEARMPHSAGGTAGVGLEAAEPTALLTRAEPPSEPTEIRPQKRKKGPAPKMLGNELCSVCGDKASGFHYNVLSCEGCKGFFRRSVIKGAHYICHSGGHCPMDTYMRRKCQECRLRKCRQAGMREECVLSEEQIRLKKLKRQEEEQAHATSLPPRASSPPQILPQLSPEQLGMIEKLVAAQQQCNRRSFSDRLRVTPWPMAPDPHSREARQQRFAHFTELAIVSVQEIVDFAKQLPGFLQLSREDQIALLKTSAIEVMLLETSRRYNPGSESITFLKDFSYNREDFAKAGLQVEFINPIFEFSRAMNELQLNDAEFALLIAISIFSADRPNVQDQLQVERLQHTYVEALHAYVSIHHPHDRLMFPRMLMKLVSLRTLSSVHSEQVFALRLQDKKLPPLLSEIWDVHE
As to the kind of experiment: Agonist activity at human LXRalpha expressed in HEK293 cells after 24 hrs by One-Glo luciferase reporter gene assay. The format is cell-based. A general note: In a reporter assay the amount or activity of a reporter protein is the signal.

Data set [2] has as its target T2, Oxysterols receptor LXR-alpha (Homo sapiens) (UniProt Q13133).
T2 sequence (whole entry): T1 sequence (Q13133 whole entry)
As to the kind of experiment: Agonist activity at human LXRalpha expressed in HEK293 cells after 24 hrs by One-Glo luciferase reporter gene assay relative to TO901317. The format is cell-based.

For data set [3], the target named is T3, Oxysterols receptor LXR-beta (Homo sapiens, UniProt P55055).
T3 sequence (P55055 whole entry): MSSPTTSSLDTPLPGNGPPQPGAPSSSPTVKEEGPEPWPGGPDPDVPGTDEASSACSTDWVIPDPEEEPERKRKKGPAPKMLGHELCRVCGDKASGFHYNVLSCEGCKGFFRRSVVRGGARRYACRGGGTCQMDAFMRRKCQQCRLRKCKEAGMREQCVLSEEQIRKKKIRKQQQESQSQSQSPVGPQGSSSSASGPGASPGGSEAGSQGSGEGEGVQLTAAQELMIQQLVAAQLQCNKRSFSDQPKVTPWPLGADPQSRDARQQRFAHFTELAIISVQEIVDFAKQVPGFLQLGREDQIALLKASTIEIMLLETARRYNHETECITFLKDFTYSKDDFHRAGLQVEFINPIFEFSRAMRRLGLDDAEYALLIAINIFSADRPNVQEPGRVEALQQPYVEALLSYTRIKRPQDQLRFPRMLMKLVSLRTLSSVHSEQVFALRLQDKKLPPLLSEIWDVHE
As to the kind of experiment: Agonist activity at GAL4-tagged human LXRbeta LBD expressed in HEK293T cells after 12 hrs by luciferase reporter gene assay. The format is cell-based.

Data set [4] deals with T3, Oxysterols receptor LXR-beta. As to the kind of experiment: Agonist activity at human full length LXRbeta expressed in African green monkey CV-1 cells co-expressing human pCMX/RXRalpha after 20 hrs by luciferase reporter gene assay. Type of data set: cell-based.
For data set [5], the species on record is Homo sapiens. As to the kind of experiment: Toxicity in human assessed as decrease in mean neutrophil count at 15 mg after 7 days relative to baseline control. The following applies: in vivo, 168 h. The format is organism-based. On the set-up: scale not given: the % may be the effect or the level left.
The target in data set [6] is T1, Oxysterols receptor LXR-alpha. As to the kind of experiment: Agonist activity at human LXRalpha-LBD (182 to 447 amino acids) expressed in HEK293T cells by luciferase reporter gene assay. The format is cell-based.
Data set [7] concerns T4, Oxysterols receptor LXR-alpha (Homo sapiens), Q13133 [R305G].
T4 sequence (whole entry): T1 sequence (Q13133 whole entry) with R305G
As to the kind of experiment: Agonist activity at human GAL-tagged LXRbeta-LBD R305G mutant transfected in HEK293T cells assessed as co-activator recruitment using NCoR as co-repressor by TR-FRET assay relative to TO901317. Type of data set: cell-based. On the technique in general: TR-FRET usually uses a lanthanide donor and a delayed reading to cut background.

The target in data set [8] is T3, Oxysterols receptor LXR-beta. As to the kind of experiment: Agonist activity at human LXRbeta-LBD (196 to 461 amino acids) expressed in HEK293T cells by luciferase reporter gene assay. Type of data set: cell-based.
Data set [9] relates to T4, Oxysterols receptor LXR-alpha (Homo sapiens), Q13133 [R305G]. As to the kind of experiment: Agonist activity at human GAL-tagged LXRbeta-LBD R305G mutant transfected in HEK293T cells assessed as co-activator recruitment using TRAP220 as co-activator by TR-FRET assay relative to TO901317. The format is cell-based.
The target of data set [10] is T5, Oxysterols receptor LXR-beta (Homo sapiens) (UniProt P55055).
T5 sequence (whole entry): T3 sequence (P55055 whole entry)
As to the kind of experiment: Agonist activity at human GAL-tagged LXRbeta-LBD F271A mutant transfected in HEK293T cells assessed as co-activator recruitment using D22 as co-activator by TR-FRET assay relative to TO901317. The format is cell-based.

Data set [11] deals with T5, Oxysterols receptor LXR-beta (Homo sapiens). As to the kind of experiment: Agonist activity at human GAL-tagged LXRbeta-LBD F271A mutant transfected in HEK293T cells assessed as co-repressor recruitment using SMRT as co-repressor by TR-FRET assay relative to TO901317. The format is cell-based.
Data set [12] addresses T1, Oxysterols receptor LXR-alpha. As to the kind of experiment: Inverse agonist activity at LXRalpha (unknown origin) expressed in HEK293 cells 24 hrs by Dual-Glo luciferase assay. The format is cell-based.
The subject of data set [13] is Mus musculus. As to the kind of experiment: Reduction in hepatic collagen deposition in mouse at 30 mg/kg, ip for 30 days. The format is functional. The conditions noted are these: 720 h.
Data set [14] has as its target T3, Oxysterols receptor LXR-beta. As to the kind of experiment: Inverse agonist activity at LXRbeta (unknown origin) expressed in HEK293 cells 24 hrs by Dual-Glo luciferase assay. Type of data set: cell-based.
A short description of data set [15]: Plasma concentration in cynomolgus monkey at 1 mg/kg, po after 48 hrs by LC-MS analysis. Type of data set: ADME, organism-based, Macaca fascicularis.
For data set [16], the system named is Cynomolgus monkey. As to the kind of experiment: In vivo transactivation in po dosed cynomolgus monkey blood assessed as induction ABCG1 mRNA expression after 24 hrs by PCR analysis. Type of data set: functional, organism-based. The following applies: Macaca fascicularis.
The test system of data set [17] is Cynomolgus monkey. As to the kind of experiment: Increase in plasma triglycerides in orally dosed cynomolgus monkey. The format is functional, Macaca fascicularis.
Data set [18] is described as follows: Cmax in cynomolgus monkey at 1 mg/kg, po by LC-MS analysis. Further details: dose 1 mg/kg, route oral. The format is ADME, organism-based, Macaca fascicularis. The conditions noted are these: in vivo.
For data set [19], the system named is Cynomolgus monkey. As to the kind of experiment: Increase in plasma LDL cholesterol in orally dosed cynomolgus monkey. Type of data set: functional, Macaca fascicularis.
The nature of data set [20]: Tmax in cynomolgus monkey at 1 mg/kg, po by LC-MS analysis. Type of data set: ADME, organism-based, Macaca fascicularis. The following applies: in vivo.
Data set [21] relates to Cynomolgus monkey. As to the kind of experiment: In vivo transactivation of LXRbeta in cynomolgus monkey assessed as induction of ABCG1 expression at 1 mg/kg, po by PCR analysis. Type of data set: functional, Macaca fascicularis.

One may read the EC50 as the concentration that produces a half-maximal response. What is called Emax is the greatest response seen or fitted, relative to the assay's reference. `COC1CCN(C(=O)CC[C@@H](C)[C@H]2CC[C@H]3[C@@H]4CC=C5C[C@@H](O)CC[C@]5(C)[C@H]4CC[C@]23C)CC1`: the midpoint of the response in [1], the EC50, lay at 230 nM. Also, the Emax in data set [2] was determined as 58%.

On to `Cc1c(C(=O)OC(C)C(=O)N2CCNC2=O)oc2cc(F)ccc12` (stereo not drawn), for which the response in [3] was half-maximal at 720 nM (EC50).

Consider `CS(=O)(=O)c1cccc(-c2ccc(-c3cc(C(F)(F)F)nn3-c3ccccc3Cl)s2)c1`, for which the response in [4] was half-maximal at 108 nM (EC50).

For the molecule `CC(C)(O)c1cn(-c2ccc(-c3cc(F)c(CO)c(S(C)(=O)=O)c3)cc2F)c(C(C)(C)c2c(Cl)cccc2Cl)n1` [BMS-852927], the Activity in data set [5] was 47%.

Consider `CN(CC(=O)Nc1ccc(F)c(F)c1F)C(=O)c1ccc2c(c1)OCCO2`, for which the results for the EC50 in [6] and in data set [8] were 150 nM and 530 nM, respectively. Moreover, the Activity in [7] was determined as 31%; in data set [9], 18%; in [10], 13%; in [11], 23%.

In general, IC50 refers to the concentration needed to halve the response being measured. In general, inhibition in vivo refers to the drop in the measured response relative to a control, in per cent. `CCOC(=O)c1ccc(CN(Cc2ccc(-c3cccc(S(C)(=O)=O)c3)cc2)S(=O)(=O)c2c(C)cc(C)cc2C)o1`: the IC50 in data set [12] was 214 nM; in [14], 43 nM. Also, 30 mg/kg produced 90% inhibition in vivo in data set [13].

As a reminder, the Cmax is the highest concentration seen after dosing. One may read the Tmax as the time at which the peak concentration occurs. For the molecule `CC(C)(O)c1cn(-c2ccc(-c3cccc(S(C)(=O)=O)c3)cc2)c(C(C)(C)c2ccccc2Cl)n1` [BMS-779788], in [15], the concentration at 48 h came to 154 nM. The EC50 in [16] turned out to be 610 nM. Also, the “fold change (FC)” value in data set [17] was found to be 29; in data set [19], 12; in data set [21], 4.7. Further, in data set [18], the Cmax came out at 2230 nM. The Tmax in [20] was found to be 2 h.

In data set [1], `C[C@H](CCC(=O)N(C)C)[C@H]1CC[C@H]2[C@@H]3CC=C4C[C@@H](O)CC[C@]4(C)[C@H]3CC[C@]12C` gave an EC50 of 422 nM. Besides, in [2], the Emax amounted to 45%.
